{"source": "patent US20230301890A1", "about": "“COMPOSITIONS COMPRISING UROLITHINS” (Amazentis SA, priority 2022, published 2023)", "key": {"[1]": {"test_system": "Normal Adult Human Dermal Fibroblasts (NHDF-Ad)", "assay": "RNA sequencing gene expression in human primary dermal fibroblasts", "type": "cell-based", "settings": "for expression of MMP1: vs DMSO/vehicle", "experimental": "(§1) Study was conducted on Normal Adult Human Dermal Fibroblasts (NHDF-Ad) from two pooled donors (Catalog #: CC-2511) and Normal Adult Human Epidermal Keratinocytes (NHEK-Ad) from two pooled donors (Catalog #: 00192627, Lonza). The primary skin cells were amplified in flask and seeded in 12-well cell culture plates, filled with 1 mL of culture medium and then incubated at 37° C. with 5% CO2 and saturated hygrometry. The basic culture medium of human dermal fibroblasts was composed of FBM™ medium (Fibroblast Growth Basal Medium) supplemented with insulin 0.1%, hFGF-B 0.1%, GA-1000 0.1% and FBS 2%. The basic culture medium of human keratinocytes was composed of KBM™ Gold medium (Keratinocytes Basal Medium) supplemented with Hydrocortisone, Transferrin, Epinephrine, Gentamycin, Amphotericin B, BPE, hEGF and Insulin. Primary cells were treated at confluency (approximatively 250000 cells per well) with 0.1% DMSO (control), 2.5 μM and 10 μM of Urolithin A for 24 h, and harvested for RNA sequencing and expression profiling using the NGS platform."}, "[2]": {"test_system": "Normal Adult Human Epidermal Keratinocytes (NHEK-Ad)", "assay": "RNA sequencing gene expression in human primary keratinocytes", "type": "cell-based", "settings": "for expression of autophagy/mitophagy and mitochondrial function genes / expression of MMP1: vs DMSO/vehicle", "experimental": "as §1"}, "UVB induced erythema": {"test_system": "UVB induced erythema", "assay": "Clinical trial: UVB induced erythema, Chromameter a*", "type": "in vivo, human", "experimental": "A sunburn of 1.25 minimal erythemal dose (MED) was evoked on one set of test areas and 1.6 MED on the other set of test areas by irradiation with a sun simulator. On 3 test areas of each set products was applied 24 hours before irradiation, on 3 other test areas of each set products was applied immediately after irradiation. An irradiated but untreated test area served as a control. The effect of the test products was assessed by visual evaluation of erythema and instrumental color measurements by Chromameter before and after irradiation. The study was reviewed by an independent institutional review board (IRB) for ethical approval.\nThe following efficacy assessment(s) will be performed: • Erythema (a*) by Chromameter (See FIG. 10) • Visual erythema evaluation (trained grader)\nThe following instrumental measurement(s) will be performed: • CHROMAMETER CR 400 (Minolta, Device D-Langenhagen, Germany): Skin color can objectively be quantified by reflectance measurements with a tri-stimulus Chromameter. The measuring principle is based on the reflection of a Xenon flash that diffusely lightens the skin on an area of 8 mm in diameter. The vertically reflected light from the skin is then detected by high-sensitive silica photodiodes that provide a color analysis of the detected light. The Chromameter defines the measured color in the L*a*b* color coordinate system. The L*-value defines the brightness. The color is defined by the parameters a* (red-green axis; negative a*-value green, positive a*-value red) and b* (blue-yellow axis, negative b*-value blue, positive b*-value yellow). The a* value correlates well with visual assessments of skin redness (erythema), a* is a measure for erythema. […]"}, "facial wrinkles": {"test_system": "facial wrinkles", "assay": "Aging study 1: wrinkle analysis of Colorface images", "type": "in vivo, human", "source_text": "The effect of the test product on the skin barrier function will be assessed by transepidermal […] (TEWL) at the beginning as well as after 2 weeks and after 8 weeks of product application. Furthermore, effects on the facial skin on skin hydration (by Corneometer), skin elasticity and firmness (by Cutometer) and skin color (by Spectrophotometer) will be investigated. Additionally, skin layer thickness and undulation index of the dermal epidermal junction (DEJ) will be measured by line-field confocal optical coherence tomography (LC-OCT). Images for wrinkle analysis and for documentation purpose will be taken with Colorface. A questionnaire regarding product traits will be filled in after 2 weeks of product application and at the end of the study.\nThe following efficacy assessment(s) will be performed: • Biomarker analysis of 3 mm punch-biopsies on 30 subjects (15 subjects per group) by Sponsor/3rd party • Transepidermal Water Loss (TEWL) by Tewameter [g/(m2h)j • Skin Hydration—Skin Capacitance by Corneometer [a.u.j] (see FIG. 8) • Skin Color by Spectrophotometer • Skin Firmness—R0 (Uf) by Cutometer [mm] • Skin Elasticity—R7 (Ur/Uf) by Cutometer • Image analysis by line-field confocal optical coherence tomography (LC-OCT) by Damae**: • (a) Skin layer thickness (epidermis and stratum corneum) • (b) Undulation index of the dermal epidermal junction (DEJ) • Image analysis of Colorface Images by Newtone • (a) analysis of wrinkles and fine lines (see FIG. 7) • (b) creation of average face • Questionnaire of product traits • upon decision of the sponsor, depending on the results of the other instrumental measurements analysis will be done on either one group at three timepoints, or on two groups at two timepoints\nCOLORFACE® PHOTOBOX (Newtone Technologies, Lyon, France): Colorface® is used for standardized, computer-controlled facial photography. It is equipped with a 24 Mpixel Nikon camera and a various range of LED-flashes at fixed positions in the booth. Illumination of the face is done with • ? standard flashes • ? parallel-polarized light • ? cross-polarized light • □ UV flashes to obtain fluorescent images. The acquisition software for Colorface is used as image database, but also defines the settings for the respective study. All settings are fixed so that unwanted changes of image capture parameters can be avoided. The instrument enables facial photography of high quality and same illumination at different assessment times. Images of the following position of the face will be taken: • ? front • ? right • ? left • 1 single image per setting, face position and assessment time • Data will be stored in the Newtone Imaging access cloud • Images will be provided to the sponsor in an anonymized way (e.g., black bar covering eyes) if possible.\nCrow's Feet Analysis: • Parameter: Visible length, Visible surface, Visible depth and Visible volume • Illumination: STD60 • View: profile: right and left • Area: Crow's Feet"}}, "note": "“Also recorded” adds a separate entry of the source."}
{"molecule": "O=c1oc2cc(O)ccc2c2ccc(O)cc12", "note": "[Urolithin A]", "values": [{"measurement": "collagen gene expression (COL1A1)", "setting": "[1]; 2.5 μM or 10 μM, 24 hours", "result": "did not alter"}, {"measurement": "expression of MMP1", "setting": "[1]; 2.5 μM or 10 μM, 24 hours", "result": "decreases"}, {"measurement": "expression of MMP1", "setting": "[1]; 2.5 μM or 10 μM, 24 hours, listed as UA", "result": "suppressed the expression"}, {"measurement": "expression of mitophagy genes PARKIN and PINK1 and autophagy genes MAP1LC3 and ULK1", "setting": "[1]; 2.5 μM or 10 μM, 24 hours, vs vehicle", "result": "dose-dependent increase"}, {"measurement": "expression of mitophagy marker PINK1", "setting": "[1]; 2.5 uM or 10 uM, vs DMSO", "result": "increased"}, {"measurement": "expression of genes encoding collagen degradation enzymes (MMPs, ADAMs)", "setting": "[2]; 2.5 uM or 10 uM, 24 h, vs DMSO", "result": "reduces expression"}, {"measurement": "expression of genes encoding proinflammatory cytokines (IL1A, IL1B)", "setting": "[2]; 2.5 uM or 10 uM, 24 h, vs DMSO", "result": "reduces expression"}, {"measurement": "expression of autophagy/mitophagy and mitochondrial function genes", "setting": "[2]; 2.5 uM or 10 uM, 24 h", "result": "increases the expression"}, {"measurement": "expression of autophagy/mitophagy and mitochondrial function genes", "setting": "[2]; 2.5 uM or 10 uM, 24 h, listed as UA", "result": "upregulated"}, {"measurement": "expression of mitophagy marker PINK1", "setting": "[2]; 2.5 uM or 10 uM, vs DMSO", "result": "increased"}, {"measurement": "expression of MMP1", "setting": "[2]; 24 h", "result": "decreases"}, {"measurement": "expression of MMP1", "setting": "[2]; 24 h, listed as UA", "result": "drastic downregulation"}, {"measurement": "expression of MMP3", "setting": "[2]; 24 h, vs vehicle", "result": "drastic downregulation"}, {"measurement": "skin redness, erythema (a*) by Chromameter vs untreated area", "setting": "UVB induced erythema; skin cream with 1% Urolithin A, 1.6 MED UVB, 24 hours after irradiation", "result": "reduction; also recorded: significantly less skin redness"}, {"measurement": "reduction of skin redness/erythema", "setting": "UVB induced erythema; skin cream with 1% Urolithin A, 1.6 MED UVB, vs untreated area", "result": "approximately 14.3%"}, {"measurement": "skin redness/erythema", "setting": "UVB induced erythema; skin cream with Urolithin A at 0.5%", "result": "did not show any significant effect"}, {"measurement": "wrinkle depth", "setting": "facial wrinkles; 0.5% Urolithin A skin cream, vs placebo", "result": "no impact"}, {"measurement": "wrinkle depth", "setting": "facial wrinkles; 0.5% Urolithin A skin cream, vs placebo, listed as UA", "result": "did not showed any significant effect"}, {"measurement": "wrinkle depth", "setting": "facial wrinkles; 0.5% Urolithin A skin cream, vs placebo, listed as urolithin A", "result": "Lack of anti-wrinkle effect"}, {"measurement": "wrinkle depth", "setting": "facial wrinkles; 1% Urolithin A skin cream, 8 weeks twice daily, vs placebo treated side", "result": "significant impact on reducing wrinkle depth"}, {"measurement": "wrinkle depth", "setting": "facial wrinkles; 1% Urolithin A skin cream, 8 weeks twice daily, vs placebo treated side, listed as UA", "result": "significant anti-wrinkle effects; also recorded: significant reduction"}, {"measurement": "wrinkle depth", "setting": "facial wrinkles; 1% Urolithin A skin cream, 8 weeks twice daily, vs placebo treated side, listed as urolithin A", "result": "Reduction; also recorded: Anti-wrinkle effect"}, {"measurement": "reduction in wrinkles", "setting": "facial wrinkles; cream containing Urolithin A at 1% alone", "result": "4-6%"}]}
